Legend:
[1] = Radiochemical purity (RCP) by iTLC after radiolabeling with Ra-223; format: physicochemical; conditions: for RCP Ra-223: iTLC; for labelling efficiency with radium-223: compared to monomeric macropa, at 0.1 and 0.02 mM, as low as 0.005 mM for Oct2
Method: (§1) Aliquots of Ac-225 in 0.04 M HCl or Ra-223 in 0.05 M HCl were withdrawn into Eppendorf tubes. The radioactivity in each tube was measured by HPGe detector. Solutions of compounds in 0.1 M sodium acetate, pH 5-5.5 (with additional 0.1 M NaCl for ACC solutions) were added to the tubes. RAC was in the range of 1-5 M Bq/mL and specific activity in the range of 2-200 kBq/nmol. The labelling solutions were left for 60-90 min at room temperature.
(§2) Radiochemical purity (RCP) of the labeled compounds was determined by iTLC. iTLC strips were cut from silica impregnated chromatography paper, approx. 1 cm wide and 11 cm long. The strips were marked with a pen at 1 cm (application point), 4 cm (cut line for ACCs) or 5 cm (cut line for chelators) and 8 cm (front line). A beaker was filled up to 0.5 cm with 0.1 M citrate in 0.9% NaCl, pH 5.5. 1-10 μL of the radiolabeled compound was added to the application point and the strips immediately placed vertically in the beaker. The strips were removed when the solvent front reached the front line and then cut in two sections at the cut line. Each section was measured using a HPGe detector (ORTEC) to determine the radioactivity origin from the nuclide of interest. The RCP, in percentage, forthe nuclide of interest was calculated using the following equation: […]

[2] = Radiochemical purity (RCP) by iTLC after radiolabeling with Ac-225; format: physicochemical; conditions: labelling concentration 0.02 mM
Method: as §1, §2

[3] = Radio-HPLC analysis of Ra-223 labelled compound with peak fractioning; format: physicochemical
Method: Radiolabeled compounds were analyzed by radio-HPLC using either a) Vanquish HPLC system (Thermo) equipped with a diode array detector and a Flowstar LB 514 radio detector (Berthold technologies); or b) an 1290 Infinity-II HPLC system (Agilent) equipped with a diode array detector and flow-count radio detector (Eckert & Ziegler).
Labelled chelator compounds were eluted using A=40 mM TRIS/6 mM citrate/2 mM EDTA and B=ACN/MeOH (8:2); aKinetexC18 (30×2.1 mm), 1.7 μm, 100 Å, Phenomenex); gradient 5-50% B for 10 min; flow rate of 0.3 mL/min or a Discovery RP amide c16 (150×2.1mm), 5 um, 100 Å, Gradient: 5-50% B for 12.5 min; flow rate of 0.6 mL/min.
Radio-HPLC peak fractioning was performed to determine the radionuclide(s) associated to each radio peak. The collected peak fractions were analysed using an HPGe detector.

[4] = cited from earlier work
[5] = labelling concentration 0.27 mM
[6] = labelling concentration 0.005 mM
[7] = labelling concentration 0.02 mM

| Compound | RCP Ac-225 [2] | labelling efficiency with radium-223 [1] | RCP Ra-223 [1, 6] | RCP Ra-223 [1, 7] | also measured |
| --- | --- | --- | --- | --- | --- |
| Nc1cc(CN2CCOCCOCCN(Cc3cccc(C(=O)O)n3)CCOCCOCC2)nc(C(=O)O)c1 [Macropa-NH2, reference compound] | 99% |  |  |  | RCP Ra-223 ([1]; labelling concentration 0.1 mM): 2%; RCP Ra-223 [1, 5]: 12% |
| O=C(O)c1cccc(CN2CCOCCOCCN(Cc3cccc(C(=O)NCCCC[C@@H](NC(=O)c4cccc(CN5CCOCCOCCN(Cc6cccc(C(=O)O)n6)CCOCCOCC5)n4)C(=O)O)n3)CCOCCOCC2)n1 [Dim3, 6-[[16-[[6-[[(5R)-5-carboxy-5-[[6-[[16-[(6-carboxy-2-pyridyl)methyl]-1,4,10,13-tetraoxa-7,16-diazacyclooctadec-7-yl]methyl]pyridine-2-carbonyl]amino]pentyl]carbamoyl]-2-pyridyl]methyl]-1,4,10,13-tetraoxa-7,16-diazacyclooctadec-7-yl]methyl]pyridine-2-carboxylic acid] | 100% |  |  |  | RCP Ra-223 ([1]; labelling concentration 0.2 mM): 32% |
| O=C(O)c1cccc(CN2CCOCCOCCN(Cc3cccc(CN4CCOCCOCCN(Cc5cccc(C(=O)O)n5)CCOCCOCC4)n3)CCOCCOCC2)n1 [Dim2, 6,6′-[pyridine-2,6-diylbis(methylene-1,4,10,13-tetraoxa-7,16-diazacyclooctadecane-16,7-diylmethylene)]dipyridine-2-carboxylic acid] | 100% |  |  |  | RCP Ra-223 ([1]; labelling concentration 0.2 mM): 11% |
| O=C(CCc1cc(CN2CCOCCOCCN(Cc3cccc(C(=O)O)n3)CCOCCOCC2)nc(C(=O)O)c1)NCCCC[C@H](NC(=O)CCc1cc(CN2CCOCCOCCN(Cc3cccc(C(=O)O)n3)CCOCCOCC2)nc(C(=O)O)c1)C(=O)NCCN(CCCN(CCNC(=O)[C@H](CCCCNC(=O)CCc1cc(CN2CCOCCOCCN(Cc3cccc(C(=O)O)n3)CCOCCOCC2)nc(C(=O)O)c1)NC(=O)CCc1cc(CN2CCOCCOCCN(Cc3cccc(C(=O)O)n3)CCOCCOCC2)nc(C(=O)O)c1)CCNC(=O)[C@H](CCCCNC(=O)CCc1cc(CN2CCOCCOCCN(Cc3cccc(C(=O)O)n3)CCOCCOCC2)nc(C(=O)O)c1)NC(=O)CCc1cc(CN2CCOCCOCCN(Cc3cccc(C(=O)O)n3)CCOCCOCC2)nc(C(=O)O)c1)CCNC(=O)[C@H](CCCCNC(=O)CCc1cc(CN2CCOCCOCCN(Cc3cccc(C(=O)O)n3)CCOCCOCC2)nc(C(=O)O)c1)NC(=O)CCc1cc(CN2CCOCCOCCN(Cc3cccc(C(=O)O)n3)CCOCCOCC2)nc(C(=O)O)c1 [Oct2] |  | high labelling efficiency | 64% |  |  |
| COC(=O)c1cccc(CN2CCOCCOCCN(Cc3cc(NC(=O)COCC(=O)NCCN(CCN)CCCN(CCN)CCNC(=O)COCC(=O)Nc4cc(CN5CCOCCOCCN(Cc6cccc(C(=O)OC)n6)CCOCCOCC5)nc(C(=O)OC)c4)cc(C(=O)OC)n3)CCOCCOCC2)n1 [Dim1, Dimethyl 4,4′-{[9,13-bis(2-aminoethyl)-1,5,17,21-tetraoxo-3,19-dioxa-6,9,13,16-tetraazahenicosane-1,21-diyl]diimino}bis{6-[(16-{[6-(methoxycarbonyl)pyridin-2-yl]methyl}-1,4,10,13-tetraoxa-7,16-diazacyclooctadecan-7-yl)methyl]pyridine-2-carboxylate}] | 100% | high labelling efficiency |  | 80% |  |
| O=C(O)c1cccc(CN2CCOCCOCCN(Cc3cccc(C(=O)O)n3)CCOCCOCC2)n1 [Macropa, 6,6′-[1,4,10,13-tetraoxa-7,16-diazacyclooctadecane-7,16-diylbis(methylene)]dipyridine-2-carboxylic acid, reference compound] | 100% |  | 8% |  | complexation of radium-223 ([1]; at 0.1, 0.02 and 0.005 mM concentrations): no complexation of radium-223 was observed; RCP Ra-223 [1, 5]: 12%; selectivity for large over small alkaline earth metals [4]: excellent selectivity; affinity for Ba2+ ([4]; pH 7.4): highest affinity |

Now from value to molecule, other results behind:

| RCP Ac-225 [2] | labelling efficiency with radium-223 [1] | RCP Ra-223 [1, 6] | RCP Ra-223 [1, 7] | Compound | also measured |
| --- | --- | --- | --- | --- | --- |
|  | high labelling efficiency | 36% | 95% | O=C(CCc1cc(CN2CCOCCOCCN(Cc3cccc(C(=O)O)n3)CCOCCOCC2)nc(C(=O)O)c1)NCCN(CCCN(CCNC(=O)CCc1cc(CN2CCOCCOCCN(Cc3cccc(C(=O)O)n3)CCOCCOCC2)nc(C(=O)O)c1)CCNC(=O)CCc1cc(CN2CCOCCOCCN(Cc3cccc(C(=O)O)n3)CCOCCOCC2)nc(C(=O)O)c1)CCNC(=O)CCc1cc(CN2CCOCCOCCN(Cc3cccc(C(=O)O)n3)CCOCCOCC2)nc(C(=O)O)c1 [Tet5, 4,4′-[7,11-bis(2-{3-[2-carboxy-6-({16-[(6-carboxypyridin-2-yl)methyl]-1,4,10,13-tetraoxa-7,16-diazacyclooctadecan-7-yl}methyl)pyridin-4-yl]propanamido}ethyl)-3,15-dioxo-4,7,11,14-tetraazaheptadecane-1,17-diyl]bis[6-({16-[(6-carboxypyridin-2-yl)methyl]-1,4,10,13-tetraoxa-7,16-diazacyclooctadecan-7-yl}methyl)pyridine-2-carboxylic acid]] |  |
| 99% | high labelling efficiency |  | 95% | COC(=O)c1cccc(CN2CCOCCOCCN(Cc3cc(NC(=O)COCC(=O)NCCN(CCCN(CCNC(=O)COCC(=O)Nc4cc(CN5CCOCCOCCN(Cc6cccc(C(=O)OC)n6)CCOCCOCC5)nc(C(=O)OC)c4)CCNC(=O)COCC(=O)Nc4cc(CN5CCOCCOCCN(Cc6cccc(C(=O)OC)n6)CCOCCOCC5)nc(C(=O)OC)c4)CCNC(=O)COCC(=O)Nc4cc(CN5CCOCCOCCN(Cc6cccc(C(=O)OC)n6)CCOCCOCC5)nc(C(=O)OC)c4)cc(C(=O)OC)n3)CCOCCOCC2)n1 [Tet1] | labeling of solution with Ra-223 ([3]; 0.02 mM solution): efficient labeling; wash through of free radioactivity in the void volume ([3]; radio HPLC, Ra-223 labelled): almost no wash through of free radioactivity |
|  | high labelling efficiency |  | 74% | O=C(COCC(=O)Nc1cc(CN2CCOCCOCCN(Cc3cccc(C(=O)O)n3)CCOCCOCC2)nc(C(=O)O)c1)NCCN(CCCN(CCNC(=O)COCC(=O)Nc1cc(CN2CCOCCOCCN(Cc3cccc(C(=O)O)n3)CCOCCOCC2)nc(C(=O)O)c1)CCNC(=O)COCC(=O)Nc1cc(CN2CCOCCOCCN(Cc3cccc(C(=O)O)n3)CCOCCOCC2)nc(C(=O)O)c1)CCNC(=O)COCC(=O)Nc1cc(CN2CCOCCOCCN(Cc3cccc(C(=O)O)n3)CCOCCOCC2)nc(C(=O)O)c1 [Tet2, 4,4′-[(9,13-bis{2-[2-(2-{[2-carboxy-6-({16-[(6-carboxypyridin-2-yl)methyl]-1,4,10,13-tetraoxa-7,16-diazacyclooctadecan-7-yl}methyl)pyridin-4-yl]amino}-2-oxoethoxy)acetamido]ethyl}-1,5,17,21-tetraoxo-3,19-dioxa-6,9,13,16-tetraazahenicosane-1,21-diyl)diimino]bis[6-({16-[(6-carboxypyridin-2-yl)methyl]-1,4,10,13-tetraoxa-7,16-diazacyclooctadecan-7-yl}methyl)pyridine-2-carboxylic acid]] |  |
|  | high labelling efficiency |  | 89% | COC(=O)c1cccc(CN2CCOCCOCCN(Cc3cc(NC(=O)COCC(=O)NCCN(CCN)CCCN(CCNC(=O)COCC(=O)Nc4cc(CN5CCOCCOCCN(Cc6cccc(C(=O)OC)n6)CCOCCOCC5)nc(C(=O)OC)c4)CCNC(=O)COCC(=O)Nc4cc(CN5CCOCCOCCN(Cc6cccc(C(=O)OC)n6)CCOCCOCC5)nc(C(=O)OC)c4)cc(C(=O)OC)n3)CCOCCOCC2)n1 [Tri1] |  |

Reference: patent publication US20240156999A1, “MULTIMERIC CHELATOR COMPOUNDS FOR USE IN TARGETED RADIOTHERAPY” (Bayer Aktiengesellschaft, priority 2021, published 2024)
